Values of other authors in article PMC9851200, “Multiparameter phenotypic screening for endogenous TFEB and TFE3 translocation identifies novel chemical series modulating lysosome function” (Autophagy, 2022).

Experiments:
Set-up in all cases: method as in original PKIS2 published data
[1] = molecular target: T1, kinases (KINOMEscan panel) (Homo sapiens, UniProt Q12851); conditions: kinase MAP4K2; Published KINOMEscan; ref original PKIS2 published data; cited from earlier work
T1 sequence (Q12851 1-820): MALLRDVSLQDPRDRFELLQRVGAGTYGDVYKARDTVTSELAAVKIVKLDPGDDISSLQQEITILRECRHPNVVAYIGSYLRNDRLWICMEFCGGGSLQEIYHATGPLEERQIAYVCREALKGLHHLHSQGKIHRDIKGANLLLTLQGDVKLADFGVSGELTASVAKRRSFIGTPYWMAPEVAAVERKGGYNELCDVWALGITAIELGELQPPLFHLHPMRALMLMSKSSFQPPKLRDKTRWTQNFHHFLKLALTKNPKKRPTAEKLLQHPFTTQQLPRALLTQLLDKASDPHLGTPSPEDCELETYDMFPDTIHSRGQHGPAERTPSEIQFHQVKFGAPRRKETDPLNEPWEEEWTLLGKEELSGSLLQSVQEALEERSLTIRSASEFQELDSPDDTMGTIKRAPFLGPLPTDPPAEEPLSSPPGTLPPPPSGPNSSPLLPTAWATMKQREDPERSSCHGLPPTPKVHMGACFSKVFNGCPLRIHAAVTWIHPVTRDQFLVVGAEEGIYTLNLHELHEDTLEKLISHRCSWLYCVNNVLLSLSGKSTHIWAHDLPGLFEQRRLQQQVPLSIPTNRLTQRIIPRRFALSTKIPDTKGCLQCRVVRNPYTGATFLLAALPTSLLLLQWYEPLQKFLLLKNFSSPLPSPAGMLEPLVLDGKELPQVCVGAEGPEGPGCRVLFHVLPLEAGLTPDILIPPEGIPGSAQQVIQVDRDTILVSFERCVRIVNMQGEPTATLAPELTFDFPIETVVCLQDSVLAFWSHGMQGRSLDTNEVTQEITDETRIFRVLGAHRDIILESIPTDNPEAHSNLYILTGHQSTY

[2] = molecular target: T2, kinases (KINOMEscan panel) (Homo sapiens, UniProt Q8TF76); conditions: HASPIN; Published KINOMEscan; ref original PKIS2 published data; cited from earlier work
T2 sequence (Q8TF76 1-798): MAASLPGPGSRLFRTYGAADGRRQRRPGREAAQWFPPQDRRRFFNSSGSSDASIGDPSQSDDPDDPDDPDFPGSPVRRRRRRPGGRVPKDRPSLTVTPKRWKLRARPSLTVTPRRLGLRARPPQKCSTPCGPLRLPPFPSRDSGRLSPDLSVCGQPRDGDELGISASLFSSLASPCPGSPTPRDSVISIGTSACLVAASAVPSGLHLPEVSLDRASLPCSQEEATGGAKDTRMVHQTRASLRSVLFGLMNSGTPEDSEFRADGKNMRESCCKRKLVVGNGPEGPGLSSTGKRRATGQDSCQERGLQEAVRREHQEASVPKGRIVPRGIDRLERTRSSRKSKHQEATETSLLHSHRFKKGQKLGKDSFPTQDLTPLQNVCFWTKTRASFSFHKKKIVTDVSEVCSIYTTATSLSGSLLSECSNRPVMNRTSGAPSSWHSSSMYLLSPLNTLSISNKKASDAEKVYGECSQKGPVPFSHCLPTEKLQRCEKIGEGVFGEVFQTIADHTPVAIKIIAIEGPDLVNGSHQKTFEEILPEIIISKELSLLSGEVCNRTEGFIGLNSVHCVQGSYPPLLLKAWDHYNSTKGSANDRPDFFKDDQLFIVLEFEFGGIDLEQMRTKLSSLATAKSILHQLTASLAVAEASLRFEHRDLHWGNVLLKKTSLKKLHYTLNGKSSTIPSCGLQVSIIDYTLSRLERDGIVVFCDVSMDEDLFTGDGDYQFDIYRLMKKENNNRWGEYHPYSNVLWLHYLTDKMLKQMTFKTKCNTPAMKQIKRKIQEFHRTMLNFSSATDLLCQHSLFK

[3] = molecular target: T3, kinases (KINOMEscan panel) (Homo sapiens, UniProt Q9Y2U5); conditions: MAP3K2; Published KINOMEscan; ref original PKIS2 published data; cited from earlier work
T3 sequence (Q9Y2U5 1-619): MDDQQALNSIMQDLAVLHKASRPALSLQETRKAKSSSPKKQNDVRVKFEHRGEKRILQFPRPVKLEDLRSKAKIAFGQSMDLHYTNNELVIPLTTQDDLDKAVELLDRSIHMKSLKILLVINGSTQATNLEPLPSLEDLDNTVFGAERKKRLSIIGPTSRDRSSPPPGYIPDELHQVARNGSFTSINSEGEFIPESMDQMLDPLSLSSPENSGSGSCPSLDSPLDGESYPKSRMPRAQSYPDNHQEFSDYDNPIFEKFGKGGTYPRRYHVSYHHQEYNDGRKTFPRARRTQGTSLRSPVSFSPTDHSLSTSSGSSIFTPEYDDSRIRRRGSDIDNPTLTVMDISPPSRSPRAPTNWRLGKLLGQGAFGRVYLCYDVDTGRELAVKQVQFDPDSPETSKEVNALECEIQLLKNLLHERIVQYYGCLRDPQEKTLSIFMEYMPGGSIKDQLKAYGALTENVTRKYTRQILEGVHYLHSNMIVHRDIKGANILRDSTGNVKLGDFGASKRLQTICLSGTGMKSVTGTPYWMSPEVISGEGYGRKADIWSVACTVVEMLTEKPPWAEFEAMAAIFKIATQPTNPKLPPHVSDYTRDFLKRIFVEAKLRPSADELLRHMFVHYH

[4] = molecular target: kinases (KINOMEscan panel) (Homo sapiens, UniProt Q5S007); conditions: Published KINOMEscan; ref original PKIS2 published data; cited from earlier work
Sequence of kinases (KINOMEscan panel) (Homo sapiens, UniProt Q5S007) (Q5S007 whole entry): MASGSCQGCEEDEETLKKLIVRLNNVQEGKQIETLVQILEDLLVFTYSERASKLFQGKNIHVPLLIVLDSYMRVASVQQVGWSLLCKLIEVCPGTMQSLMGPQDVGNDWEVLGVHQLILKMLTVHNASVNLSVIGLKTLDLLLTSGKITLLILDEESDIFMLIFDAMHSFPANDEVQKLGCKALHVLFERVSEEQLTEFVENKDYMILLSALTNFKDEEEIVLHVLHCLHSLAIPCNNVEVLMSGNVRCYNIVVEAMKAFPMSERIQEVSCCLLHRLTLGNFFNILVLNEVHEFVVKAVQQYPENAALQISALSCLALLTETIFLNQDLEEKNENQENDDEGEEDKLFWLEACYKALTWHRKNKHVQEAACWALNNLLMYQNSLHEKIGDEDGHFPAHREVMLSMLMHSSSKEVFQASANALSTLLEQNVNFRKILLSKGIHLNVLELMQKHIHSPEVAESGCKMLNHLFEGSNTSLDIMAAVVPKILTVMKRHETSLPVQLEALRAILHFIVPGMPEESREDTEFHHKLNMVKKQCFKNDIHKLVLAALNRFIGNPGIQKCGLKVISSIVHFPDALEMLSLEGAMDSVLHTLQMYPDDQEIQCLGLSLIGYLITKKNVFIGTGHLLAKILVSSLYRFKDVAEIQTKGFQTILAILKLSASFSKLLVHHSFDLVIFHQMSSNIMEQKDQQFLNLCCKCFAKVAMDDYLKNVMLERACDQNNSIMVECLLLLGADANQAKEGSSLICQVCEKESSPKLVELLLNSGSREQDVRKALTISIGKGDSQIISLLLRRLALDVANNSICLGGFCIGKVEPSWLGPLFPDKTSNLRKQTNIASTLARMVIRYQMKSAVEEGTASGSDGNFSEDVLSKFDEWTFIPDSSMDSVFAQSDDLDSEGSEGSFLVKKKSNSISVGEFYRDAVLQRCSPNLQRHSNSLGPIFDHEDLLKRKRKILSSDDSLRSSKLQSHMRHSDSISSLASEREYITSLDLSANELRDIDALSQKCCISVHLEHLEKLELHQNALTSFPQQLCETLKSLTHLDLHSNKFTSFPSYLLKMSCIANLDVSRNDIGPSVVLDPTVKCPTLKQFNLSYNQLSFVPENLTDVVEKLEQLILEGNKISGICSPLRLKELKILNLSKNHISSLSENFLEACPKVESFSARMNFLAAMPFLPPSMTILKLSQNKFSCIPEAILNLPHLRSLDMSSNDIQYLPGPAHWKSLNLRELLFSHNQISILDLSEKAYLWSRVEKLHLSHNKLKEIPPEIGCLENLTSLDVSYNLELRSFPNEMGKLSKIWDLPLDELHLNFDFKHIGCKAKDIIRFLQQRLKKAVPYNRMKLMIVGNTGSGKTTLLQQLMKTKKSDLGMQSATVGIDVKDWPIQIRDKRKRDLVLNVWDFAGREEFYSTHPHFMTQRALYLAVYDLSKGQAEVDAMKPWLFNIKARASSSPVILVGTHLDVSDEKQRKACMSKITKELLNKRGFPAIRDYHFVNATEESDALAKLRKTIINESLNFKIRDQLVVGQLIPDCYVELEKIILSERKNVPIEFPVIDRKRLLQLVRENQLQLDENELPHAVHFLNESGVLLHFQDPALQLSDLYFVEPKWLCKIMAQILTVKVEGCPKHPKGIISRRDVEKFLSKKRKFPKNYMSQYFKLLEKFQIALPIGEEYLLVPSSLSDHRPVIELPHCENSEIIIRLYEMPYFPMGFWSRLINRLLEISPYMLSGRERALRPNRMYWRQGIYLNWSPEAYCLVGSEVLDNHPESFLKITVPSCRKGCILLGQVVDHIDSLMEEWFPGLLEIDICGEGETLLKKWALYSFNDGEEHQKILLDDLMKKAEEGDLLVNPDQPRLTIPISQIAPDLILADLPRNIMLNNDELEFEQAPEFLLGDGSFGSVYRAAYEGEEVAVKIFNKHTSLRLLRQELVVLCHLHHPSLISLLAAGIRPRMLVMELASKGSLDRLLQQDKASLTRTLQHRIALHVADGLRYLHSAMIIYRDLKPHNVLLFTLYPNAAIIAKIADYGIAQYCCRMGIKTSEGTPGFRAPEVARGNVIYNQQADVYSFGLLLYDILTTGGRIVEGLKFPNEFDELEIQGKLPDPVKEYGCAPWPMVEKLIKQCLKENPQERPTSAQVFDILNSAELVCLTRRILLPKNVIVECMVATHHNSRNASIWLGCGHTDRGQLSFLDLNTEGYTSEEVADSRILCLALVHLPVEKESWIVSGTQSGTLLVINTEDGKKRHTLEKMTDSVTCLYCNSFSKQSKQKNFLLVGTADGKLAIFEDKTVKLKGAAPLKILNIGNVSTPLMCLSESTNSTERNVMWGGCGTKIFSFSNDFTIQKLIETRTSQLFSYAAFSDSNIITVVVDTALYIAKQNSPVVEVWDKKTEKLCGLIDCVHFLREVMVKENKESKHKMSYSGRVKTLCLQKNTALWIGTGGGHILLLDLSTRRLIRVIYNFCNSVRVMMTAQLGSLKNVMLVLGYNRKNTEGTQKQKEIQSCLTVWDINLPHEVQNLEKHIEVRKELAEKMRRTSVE

SMILES: Cc1cccc(-c2nc(Nc3ccncc3)c3ccccc3n2)n1 [NK215]
- KINOMEscan MAP4K2 [1]: 0
- KINOMEscan HASPIN [2]: 26
- KINOMEscan MAP3K2 [3]: 0
- KINOMEscan LRRK2 [4]: 0
